Assay results from ChEMBL document CHEMBL1201862, “PubChem BioAssay data set” (2004).
Calls of active or inactive are those of the source.

How the values were obtained:
Protein RecA = biological target: T1, Protein RecA (Mycobacterium tuberculosis, UniProt P9WHJ3); test: Fluorescence Cell-Free Homogeneous Dose Retest to Identify Inhibitors of RecA-Intein Splicing Activity. [Related pubchem assays (depositor defined):AID2097, AID2223, AID489010, AID492950]; format: functional
T1 sequence (P9WHJ3 whole entry): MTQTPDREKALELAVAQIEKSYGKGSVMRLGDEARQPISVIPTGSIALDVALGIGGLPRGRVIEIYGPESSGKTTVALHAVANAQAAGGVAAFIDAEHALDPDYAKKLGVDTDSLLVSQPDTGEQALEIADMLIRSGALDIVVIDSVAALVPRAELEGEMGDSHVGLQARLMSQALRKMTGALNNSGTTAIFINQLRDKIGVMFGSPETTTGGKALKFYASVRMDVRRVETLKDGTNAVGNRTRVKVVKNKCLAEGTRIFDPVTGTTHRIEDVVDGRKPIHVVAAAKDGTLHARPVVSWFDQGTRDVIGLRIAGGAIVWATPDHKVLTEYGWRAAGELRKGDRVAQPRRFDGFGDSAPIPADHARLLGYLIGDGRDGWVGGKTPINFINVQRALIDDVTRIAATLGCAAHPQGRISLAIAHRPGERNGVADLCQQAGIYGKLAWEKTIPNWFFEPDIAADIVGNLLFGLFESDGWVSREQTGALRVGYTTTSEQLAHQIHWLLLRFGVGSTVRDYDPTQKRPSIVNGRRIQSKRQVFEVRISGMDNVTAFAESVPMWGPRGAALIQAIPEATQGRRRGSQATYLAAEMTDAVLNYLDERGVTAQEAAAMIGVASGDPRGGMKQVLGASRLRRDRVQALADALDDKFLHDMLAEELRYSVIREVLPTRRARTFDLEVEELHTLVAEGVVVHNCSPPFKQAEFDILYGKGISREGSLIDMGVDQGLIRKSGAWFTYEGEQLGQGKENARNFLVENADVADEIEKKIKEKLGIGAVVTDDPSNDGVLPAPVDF

Vero [1] = test: cells; format: functional; conditions: Chlorocebus sabaeus
[2] = NIH3T3 cell viability loss – ATP luminescence, mouse fibroblasts, counter-screen, dose response (AID 2010); format: functional, cell-based;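 note: cells exposed to compound for about 90 hours before reading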
[3] = biological target: T2, Replicative DNA helicase DnaB (Mycobacterium tuberculosis, UniProt P9WMR3); test: DnaB intein splicing inhibitors, dose response, biochemical, cell-free fluorescence (AID 449749); format: functional
T2 sequence (P9WMR3 whole entry): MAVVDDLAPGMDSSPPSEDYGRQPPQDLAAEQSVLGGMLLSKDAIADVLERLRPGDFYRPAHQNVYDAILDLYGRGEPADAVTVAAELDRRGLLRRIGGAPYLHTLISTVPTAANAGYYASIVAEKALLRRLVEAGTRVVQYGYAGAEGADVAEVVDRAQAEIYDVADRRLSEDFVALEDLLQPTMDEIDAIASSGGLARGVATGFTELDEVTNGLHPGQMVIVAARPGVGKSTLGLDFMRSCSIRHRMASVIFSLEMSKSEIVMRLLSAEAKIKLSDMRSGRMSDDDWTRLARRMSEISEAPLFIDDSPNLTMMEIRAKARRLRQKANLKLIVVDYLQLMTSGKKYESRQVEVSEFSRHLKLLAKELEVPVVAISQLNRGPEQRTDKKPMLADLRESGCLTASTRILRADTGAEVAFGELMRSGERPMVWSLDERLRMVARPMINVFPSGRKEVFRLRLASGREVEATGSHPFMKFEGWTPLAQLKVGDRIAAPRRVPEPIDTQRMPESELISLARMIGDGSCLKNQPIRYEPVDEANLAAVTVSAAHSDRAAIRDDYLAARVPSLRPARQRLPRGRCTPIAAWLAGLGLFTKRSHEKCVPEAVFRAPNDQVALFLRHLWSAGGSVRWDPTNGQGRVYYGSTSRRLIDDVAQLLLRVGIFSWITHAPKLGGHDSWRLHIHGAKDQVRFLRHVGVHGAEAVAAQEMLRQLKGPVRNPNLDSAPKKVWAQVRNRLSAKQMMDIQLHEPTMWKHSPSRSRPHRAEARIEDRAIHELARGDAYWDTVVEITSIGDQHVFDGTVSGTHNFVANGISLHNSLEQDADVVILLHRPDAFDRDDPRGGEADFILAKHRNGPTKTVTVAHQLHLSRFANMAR

[4] = Trypanosoma cruzi growth suppression in host cells – NIH3T3 host cells, beta-gal luminescence, confirmation (AID 2044); format: functional, cell-based;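 note: intracellular parasites grown in NIH/3T3 mouse fibroblasts as host cells; luminescent beta-galactosidase reporter signal from transgenic T. cruzi replicating inside host cells; inhibitors lower the luminescence signal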
[5] = biological target: T3, Sphingosine 1-phosphate receptor 2 (Homo sapiens, UniProt O95136); test: Dose Response Cell Based Assay for Agonists of the S1P2 Receptor. [Related pubchem assays: 729, 736, 843 ]; format: functional
T3 sequence (O95136 whole entry): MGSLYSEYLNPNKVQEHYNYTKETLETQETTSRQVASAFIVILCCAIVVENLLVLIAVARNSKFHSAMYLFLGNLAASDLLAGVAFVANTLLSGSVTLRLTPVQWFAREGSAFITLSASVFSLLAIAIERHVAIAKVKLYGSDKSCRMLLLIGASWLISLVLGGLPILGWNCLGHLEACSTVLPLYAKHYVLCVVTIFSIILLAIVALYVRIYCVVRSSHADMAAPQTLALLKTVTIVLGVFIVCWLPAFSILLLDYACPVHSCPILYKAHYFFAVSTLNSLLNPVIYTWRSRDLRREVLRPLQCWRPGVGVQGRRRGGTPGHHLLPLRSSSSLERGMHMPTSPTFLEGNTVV

[6] = biological target: T3, Sphingosine 1-phosphate receptor 2; test: Dose Response Cell Based Assay for Antagonists of the S1P2 Receptor. [Related pubchem assays: 856, 736 ]; format: functional
[7] = biological target: T4, Dual specificity protein phosphatase 6 (Rattus norvegicus, UniProt Q64346); test: inhibition of rat DUSP6 enzyme activity – biochemical, in vitro, primary screen (AID 425)
T4 sequence (Q64346 whole entry): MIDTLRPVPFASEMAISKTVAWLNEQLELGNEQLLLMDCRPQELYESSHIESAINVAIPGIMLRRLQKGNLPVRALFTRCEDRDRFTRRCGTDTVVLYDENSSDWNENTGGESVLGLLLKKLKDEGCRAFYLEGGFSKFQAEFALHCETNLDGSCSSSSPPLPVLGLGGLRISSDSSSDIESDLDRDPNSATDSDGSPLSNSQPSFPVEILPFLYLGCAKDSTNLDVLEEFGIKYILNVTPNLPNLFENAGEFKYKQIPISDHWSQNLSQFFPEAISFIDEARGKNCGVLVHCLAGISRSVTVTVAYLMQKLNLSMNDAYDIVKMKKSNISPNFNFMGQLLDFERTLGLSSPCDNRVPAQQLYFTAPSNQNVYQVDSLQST

[8] = biological target: T5, Tyrosine-protein phosphatase non-receptor type 7 (Homo sapiens, UniProt P35236); test: HePTP tyrosine phosphatase activity blockers – biochemical, absorbance, leukemia target, primary screen (AID 521); format: functional
T5 sequence (P35236 whole entry): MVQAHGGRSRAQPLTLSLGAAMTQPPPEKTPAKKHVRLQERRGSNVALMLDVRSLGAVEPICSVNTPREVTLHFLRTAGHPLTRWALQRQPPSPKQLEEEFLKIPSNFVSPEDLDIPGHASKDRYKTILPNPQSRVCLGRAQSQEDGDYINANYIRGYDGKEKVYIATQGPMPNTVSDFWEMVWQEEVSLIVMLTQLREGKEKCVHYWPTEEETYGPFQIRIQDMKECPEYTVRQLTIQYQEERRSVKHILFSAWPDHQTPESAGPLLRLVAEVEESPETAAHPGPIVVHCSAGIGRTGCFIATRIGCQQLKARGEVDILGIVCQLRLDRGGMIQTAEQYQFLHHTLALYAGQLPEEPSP

Major prion protein = Major prion protein (Homo sapiens, UniProt P04156); format: functional, cell-based
[9] = reduction of Shn3 3'UTR-driven luciferase in osteoblasts – cell-based, Clone20 osteoblasts, firefly luciferase, cherry-picked, dose response (AID 624132); format: functional;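 note: firefly luciferase luminescence from reporter carrying the Shn3 3'UTR in osteoblasts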
[10] = non-specific 3'UTR reporter inhibition in Clone20-Shn3RL – cell-based, Renilla luciferase, cherry-picked, counter-screen for Shn3 inhibitor project, dose response (AID 624133); format: functional
[11] = HEK-293T viability loss after treatment – luminescence, T-cell screen hits, cytotoxicity control for TCR NF-kB inhibitor project, dose response (AID 489026); format: functional, cell-based;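 note: cells exposed to compound about 14 hours before the viability readout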
INS1 = test: INS-1E survival protection against cytokine death – cell-based, luminescence, retest, dose response (AID 449756); format: functional; conditions: Rattus norvegicus;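 note: cell death triggered by IL-1 beta plus TNF-alpha plus IFN-gamma mixture; protective hits raise ATP signal compared with cytokine alone wells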
[12] = loss of viability in HepG2 cells – cell-based, CellTiter-Glo, cherry-picked, cytotoxicity control for Shn3 inhibitor project, dose response (AID 624134); format: functional
[13] = biological target: Voltage-gated inwardly rectifying potassium channel KCNH2 (Homo sapiens, UniProt Q12809); test: concentration-dependent hERG rescue from blockers – cell-based, thallium flux, dose response (AID 2121); format: ADME
Sequence of Voltage-gated inwardly rectifying potassium channel KCNH2 (Q12809 whole entry): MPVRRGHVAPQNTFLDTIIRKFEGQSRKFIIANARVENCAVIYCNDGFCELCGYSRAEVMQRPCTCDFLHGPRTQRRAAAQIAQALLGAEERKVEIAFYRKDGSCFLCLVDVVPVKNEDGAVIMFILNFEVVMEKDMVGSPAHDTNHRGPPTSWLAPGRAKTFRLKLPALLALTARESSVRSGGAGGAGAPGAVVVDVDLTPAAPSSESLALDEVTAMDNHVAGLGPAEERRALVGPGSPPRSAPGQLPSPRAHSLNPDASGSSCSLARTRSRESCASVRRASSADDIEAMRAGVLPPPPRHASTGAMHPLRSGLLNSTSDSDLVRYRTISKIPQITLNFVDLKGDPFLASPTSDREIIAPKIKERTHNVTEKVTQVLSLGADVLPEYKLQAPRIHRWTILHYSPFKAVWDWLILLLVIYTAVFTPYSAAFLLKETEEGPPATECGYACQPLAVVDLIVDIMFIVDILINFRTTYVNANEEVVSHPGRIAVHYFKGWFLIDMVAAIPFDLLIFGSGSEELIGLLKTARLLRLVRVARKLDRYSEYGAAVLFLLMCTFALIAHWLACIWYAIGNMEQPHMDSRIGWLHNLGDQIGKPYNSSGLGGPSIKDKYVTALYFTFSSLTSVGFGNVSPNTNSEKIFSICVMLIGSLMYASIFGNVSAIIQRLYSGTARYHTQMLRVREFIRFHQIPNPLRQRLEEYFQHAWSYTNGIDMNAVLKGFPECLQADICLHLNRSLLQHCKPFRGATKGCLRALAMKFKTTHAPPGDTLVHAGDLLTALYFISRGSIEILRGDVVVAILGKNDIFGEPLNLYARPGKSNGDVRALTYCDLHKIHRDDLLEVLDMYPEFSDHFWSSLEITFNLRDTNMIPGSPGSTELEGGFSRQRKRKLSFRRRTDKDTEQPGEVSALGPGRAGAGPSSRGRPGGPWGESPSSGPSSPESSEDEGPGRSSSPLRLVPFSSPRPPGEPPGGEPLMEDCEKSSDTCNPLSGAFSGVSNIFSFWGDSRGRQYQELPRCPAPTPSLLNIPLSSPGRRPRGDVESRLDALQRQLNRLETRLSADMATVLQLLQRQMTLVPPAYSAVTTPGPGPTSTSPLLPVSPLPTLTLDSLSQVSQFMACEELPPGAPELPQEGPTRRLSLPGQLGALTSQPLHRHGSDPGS

[14] = biological target: Glyceraldehyde-3-phosphate dehydrogenase (Homo sapiens, UniProt P04406)
Sequence of Glyceraldehyde-3-phosphate dehydrogenase (P04406 whole entry): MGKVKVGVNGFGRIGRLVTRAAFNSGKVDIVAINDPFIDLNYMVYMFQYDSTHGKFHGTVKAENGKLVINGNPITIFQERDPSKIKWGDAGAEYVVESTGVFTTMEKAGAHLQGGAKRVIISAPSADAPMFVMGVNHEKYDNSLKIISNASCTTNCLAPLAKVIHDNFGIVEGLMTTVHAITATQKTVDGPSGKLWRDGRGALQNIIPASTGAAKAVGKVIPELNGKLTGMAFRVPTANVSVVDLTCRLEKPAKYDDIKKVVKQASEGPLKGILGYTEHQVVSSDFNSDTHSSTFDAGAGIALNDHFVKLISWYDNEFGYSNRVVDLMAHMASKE

[15] = biological target: T5, Tyrosine-protein phosphatase non-receptor type 7; format: functional
[16] = biological target: T4, Dual specificity protein phosphatase 6; format: functional
Bcl-2-like protein 10 = biological target: T6, Bcl-2-like protein 10 (Homo sapiens, UniProt Q9HD36); test: Bcl-B/TR3 peptide binding disruption – biochemical, fluorescence polarization, FITC-TR3 peptide, selectivity assay for Bfl-1 inhibitor project, primary screen (AID 748);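 note: fluorescence polarization from a fluorescein-labelled TR3 peptide binding purified Bcl-B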
T6 sequence (Q9HD36 whole entry): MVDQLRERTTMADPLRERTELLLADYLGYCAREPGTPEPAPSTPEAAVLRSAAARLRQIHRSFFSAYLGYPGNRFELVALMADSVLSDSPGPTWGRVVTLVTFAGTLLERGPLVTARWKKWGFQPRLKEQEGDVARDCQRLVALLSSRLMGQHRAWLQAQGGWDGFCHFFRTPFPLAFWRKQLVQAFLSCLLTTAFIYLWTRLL

Cytochrome P450 2C19 = Cytochrome P450 2C19 (Homo sapiens, UniProt P33261); test: Cytochrome panel assay with activity outcomes. Panel member name: p450-cyp2c19 Compounds with AC50 equal or less than 10 uM are considered active; format: functional; conditions: read-out: AC50
Sequence of Cytochrome P450 2C19 (P33261 whole entry): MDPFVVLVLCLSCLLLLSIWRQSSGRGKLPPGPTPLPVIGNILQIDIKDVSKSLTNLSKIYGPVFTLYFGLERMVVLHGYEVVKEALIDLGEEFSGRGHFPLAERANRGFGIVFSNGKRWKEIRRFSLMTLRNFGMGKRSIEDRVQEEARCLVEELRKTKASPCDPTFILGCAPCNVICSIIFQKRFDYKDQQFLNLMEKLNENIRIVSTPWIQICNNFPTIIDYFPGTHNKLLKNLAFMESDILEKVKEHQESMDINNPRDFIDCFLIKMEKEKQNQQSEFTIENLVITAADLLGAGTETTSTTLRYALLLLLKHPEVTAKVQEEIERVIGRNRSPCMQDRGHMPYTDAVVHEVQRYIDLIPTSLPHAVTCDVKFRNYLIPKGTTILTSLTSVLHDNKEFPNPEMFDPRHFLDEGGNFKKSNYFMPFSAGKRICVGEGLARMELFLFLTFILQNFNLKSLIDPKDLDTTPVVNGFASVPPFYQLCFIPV

[17] = biological target: T4, Dual specificity protein phosphatase 6
[18] = biological target: T7, DNA repair and recombination protein RAD54-like (Homo sapiens, UniProt Q92698); test: RAD54 Holliday junction migration blockers – biochemical, fluorescence, cherry-picked samples, dose series, confirmation (AID 651657); format: functional
T7 sequence (Q92698 whole entry): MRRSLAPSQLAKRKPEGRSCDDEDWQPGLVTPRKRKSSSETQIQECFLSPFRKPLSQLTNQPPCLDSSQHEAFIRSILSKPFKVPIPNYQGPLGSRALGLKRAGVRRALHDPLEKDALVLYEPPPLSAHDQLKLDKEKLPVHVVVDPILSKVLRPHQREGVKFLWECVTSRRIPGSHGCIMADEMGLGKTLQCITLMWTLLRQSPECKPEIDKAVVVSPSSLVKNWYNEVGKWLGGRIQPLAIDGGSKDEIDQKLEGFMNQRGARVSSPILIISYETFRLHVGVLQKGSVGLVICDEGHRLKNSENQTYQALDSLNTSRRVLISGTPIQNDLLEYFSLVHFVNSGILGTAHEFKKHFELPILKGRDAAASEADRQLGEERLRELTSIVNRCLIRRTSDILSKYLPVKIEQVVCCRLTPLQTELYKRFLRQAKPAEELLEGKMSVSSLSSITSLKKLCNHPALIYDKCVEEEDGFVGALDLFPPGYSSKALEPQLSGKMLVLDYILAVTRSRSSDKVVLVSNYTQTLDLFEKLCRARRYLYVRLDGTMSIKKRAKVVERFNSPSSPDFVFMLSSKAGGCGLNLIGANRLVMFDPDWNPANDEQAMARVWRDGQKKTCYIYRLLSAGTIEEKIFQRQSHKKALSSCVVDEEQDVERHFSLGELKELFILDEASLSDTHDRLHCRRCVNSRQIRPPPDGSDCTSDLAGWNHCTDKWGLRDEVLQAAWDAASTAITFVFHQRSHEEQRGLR

[19] = biological target: T8, DNA repair protein RAD52 homolog (Homo sapiens, UniProt P43351); format: functional, biochemical
T8 sequence (P43351 whole entry): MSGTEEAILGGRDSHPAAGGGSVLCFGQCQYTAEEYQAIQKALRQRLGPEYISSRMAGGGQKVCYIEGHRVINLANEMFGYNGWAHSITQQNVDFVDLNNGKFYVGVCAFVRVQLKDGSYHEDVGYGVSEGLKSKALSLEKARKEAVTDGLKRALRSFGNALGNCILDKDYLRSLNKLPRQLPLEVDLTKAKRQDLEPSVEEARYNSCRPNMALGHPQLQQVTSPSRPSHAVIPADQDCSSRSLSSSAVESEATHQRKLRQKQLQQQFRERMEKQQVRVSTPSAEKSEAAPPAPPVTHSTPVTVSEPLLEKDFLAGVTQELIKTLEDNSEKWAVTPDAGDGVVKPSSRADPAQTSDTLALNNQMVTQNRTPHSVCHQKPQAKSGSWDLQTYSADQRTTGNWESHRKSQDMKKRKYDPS

Vero [20] = test: inhibition of WNV-induced cytopathic effect – cell-based, CPE readout (AID 1621); format: functional; conditions: Chlorocebus sabaeus

Compound: Nc1c(C(=O)NCCCc2ccccc2)c2nc3ccccc3nc2n1Cc1cccs1
- EC50 (Protein RecA): 3.3 µM (active)
- CC50 (Vero [1]): > 25 µM (active)
- EC50 [2]: > 60 µM (not active)
- AC50 [3]: 29.3 µM (active)
- EC50 [4]: 2.17 µM (active)
- EC50 [5]: 2.2 µM (active)

Compound: COC(=O)c1sc2cc(C(F)(F)F)cnc2c1-c1ccccc1
- IC50 [6]: > 30 µM (not active)

Compound: NC(=O)CSc1nnc2n(-c3ccccc3)c(=O)c3c4c(sc3n12)CCCCC4
- IC50 [7]: > 10 µM (not active)
- IC50 [8]: 2.54 µM (active)
- IC50 (Major prion protein): 4.66 µM (active)
- IC50 (cells): 130 µM (inactive)

Compound: Nc1nc(Cl)cc(N2CCC(c3cc(-c4ccc(Cl)cc4)[nH]n3)CC2)n1
- AC50 [9]: 2.43 µM (active)
- AC50 [10]: 11.1 µM (active)
- IC50 [11]: 64.3 µM (inactive)
- EC50 [2]: 7.5 µM (active)
- EC50 [4]: 2.13 µM (active)
- AC50 (INS1): 4.41 µM (active)
- IC50 [6]: 7.01 µM (active)
- AC50 [12]: 19.5 µM (active)

Compound: COc1ccc(-c2csc(NC(=S)NC(=O)c3cccs3)n2)cc1Br
- EC50 [13]: 1.41 µM (active)

Compound: Cc1ccc(C)n1C(Cc1ccccc1)C(=O)O (configuration not stated)
- IC50 [14]: > 100 µM (not active)
- IC50 [7]: > 10 µM (not active)
- IC50 [15]: 28 µM (active)
- IC50 [16]: > 100 µM (inactive)
- IC50 (Bcl-2-like protein 10): < 0.195 µM (inactive)
- AC50 (Cytochrome P450 2C19): 22.4 µM (inconclusive)
- IC50 [17]: > 100 µM (inactive)

Compound: CCCN(CCC)CCCN=C(S)Nc1ccc2nc(N3CCCC3)cc(C)c2c1
- AC50 [18]: 19.4 µM (active)
- AC50 [19]: 9.06 µM (active)
- EC50 [2]: 10.1 µM (active)
- IC50 (Vero [20]): 25.4 µM (active)
- EC50 [4]: 1.96 µM (active)
